Experimental data as given in patent US12226409B2, “Treatment of hepatocellular carcinoma” (Eisai R&D Management Co., Ltd., priority 2017, dated 2025).

How the values were obtained:
Solubility = format: physicochemical
Partition coefficient = format: physicochemical; details: read-out: partition coefficient (log P value)
Dissociation constant = format: physicochemical; details: 25° C.
[1] = test system: unresectable hepatocellular carcinoma (HCC); assay: REFLECT study, efficacy per independent review; format: in vivo, human
Description: The efficacy of LENVIMA was evaluated in a randomized, open-label, multicenter, international study (REFLECT; […]) conducted in patients with previously untreated unresectable hepatocellular carcinoma (HCC).

[2] = test system: patients with unresectable HCC; assay: Open-label phase 3 study, safety and side-effect profile (CTCAE v4.0); details: in vivo
Description: Randomization was stratified according to region (Asia-Pacific or Western regions), macroscopic portal vein invasion and/or extrahepatic spread (yes or no), Eastern Cooperative Oncology Group performance status (0 or 1), and body weight (<60 kg or ≥60 kg).
Safety assessments included recording of vital signs, hematologic and biochemical laboratory testing, urinalysis, and electrocardiography.

COc1cc2nccc(Oc3ccc(NC(=O)NC4CC4)c(Cl)c3)c2cc1C(N)=O [LENVIMA, 4-[3-chloro-4-(N′-cyclopropylureido)phenoxy]-7-methoxyquinoline-6-carboxamide methanesulfonate]
solubility in ethanol (dehydrated) (Solubility): practically insoluble
solubility in water (Solubility): slightly soluble
logP (Partition coefficient): 3.3
pKa (Dissociation constant): 5.05
Median PFS ([1]; RECIST 1.1, independent review): 7.3 months
Objective response rate ([1]; RECIST 1.1, independent review): 19%
PFS Number of Events ([1]; RECIST 1.1, independent review): 307
PFS Number of Events (%) ([1]; RECIST 1.1, independent review): (64) %
Number of deaths ([1]; in vivo): 351
Number of deaths (%) ([1]; in vivo): (73) %
Objective response rate ([1]; mRECIST, independent review): 41%
PFS Number of Events ([1]; mRECIST, independent review): 311
PFS Number of Events (%) ([1]; mRECIST, independent review): (65) %
adverse reactions leading to dose reduction or interruption [2]: about 62%
discontinuation due to fatigue [2]: 1%
discontinuation due to hepatic encephalopathy [2]: 1%
discontinuation due to hepatic failure [2]: 1%
discontinuation due to hyperbilirubinemia [2]: 1%
dose reduction or interruption due to decreased appetite [2]: 8%
dose reduction or interruption due to diarrhea [2]: 8%
dose reduction or interruption due to fatigue [2]: 9%
dose reduction or interruption due to hypertension [2]: 6%
dose reduction or interruption due to palmar-plantar erythrodysesthesia syndrome [2]: 5%
dose reduction or interruption due to proteinuria [2]: 7%
serious adverse reaction: ascites [2]: 3%
serious adverse reaction: decreased appetite [2]: 2%
serious adverse reaction: hepatic encephalopathy [2]: 4%
serious adverse reaction: hepatic failure [2]: 3%
treatment discontinuation due to adverse reactions [2]: 20%
